Assays:
[1] = molecular target: T1, Glutamate receptor 2 (Homo sapiens, UniProt P42262); test: Activity at human recombinant GluA2 flip isoform expressed in HEK203 cells assessed as blocked of receptor desensitization
[2] = molecular target: T1, Glutamate receptor 2; test: Activity at human recombinant GluA2 receptor flip isoform expressed in HEK293 cells assessed as effect on glutamate-induced calcium flux by Fluo-4/AM staining-based fluorescence assay; type: cell-based
[3] = molecular target: T2, Glutamate receptor 3 (Homo sapiens, UniProt P42263); test: Activity at human recombinant GluA3 receptor flip isoform expressed in HEK293 cells assessed as effect on glutamate-induced calcium flux by Fluo-4/AM staining-based fluorescence assay; type: cell-based
[4] = Activity at human recombinant GluA4 receptor flip isoform expressed in HEK293 cells assessed as effect on glutamate-induced calcium flux by Fluo-4/AM staining-based fluorescence assay; type: cell-based
[5] = molecular target: T1, Glutamate receptor 2; test: Activity at human recombinant GluA2 flop isoform expressed in HEK203 cells assessed as blocked of receptor desensitization
[6] = molecular target: T3, Glutamate receptor 1 (Homo sapiens, UniProt P42261); test: Activity at human recombinant GluA1 receptor flip isoform expressed in HEK293 cells assessed as effect on glutamate-induced calcium flux by Fluo-4/AM staining-based fluorescence assay; type: cell-based
[7] = molecular target: T1, Glutamate receptor 2; test: Activity at human recombinant GluA2 receptor flop isoform expressed in HEK293 cells assessed as effect on glutamate-induced calcium flux by Fluo-4/AM staining-based fluorescence assay; type: cell-based
[8] = molecular target: Glutamate receptor 4 (Homo sapiens, UniProt P48058); test: Inhibition of GluA4 receptor expressed in Xenopus oocytes assessed as inhibition of […] uM kainate-induced current by patch clamp electrophysiological assay; type: cell-based, Oocyte
[9] = molecular target: T4, Glutamate receptor AMPA 1/2 (Homo sapiens, UniProt P42261+P42262); test: Activity at recombinant GluA1A2 receptor flop isoform expressed in Xenopus oocytes assessed as effect of 100 uM kainate-induced current by patch clamp electrophysiological assay; type: cell-based, Oocyte
[10] = molecular target: Glutamate receptor 1 (Rattus norvegicus, UniProt P19490); type: cell-based, Oocyte
[11] = molecular target: T3, Glutamate receptor 1; type: cell-based, Oocyte
[12] = molecular target: T3, Glutamate receptor 1; type: cell-based, Oocyte; remark: listed apart in the source
[13] = molecular target: Glutamate receptor AMPA 1/2 (Rattus norvegicus, UniProt P19490+P19491); type: cell-based, Oocyte
[14] = molecular target: T2, Glutamate receptor 3; test: Inhibition of recombinant GluA3 receptor flip isoform expressed in Xenopus oocytes assessed as inhibition of […] uM kainate-induced current by patch clamp electrophysiological assay; type: cell-based, Oocyte
[15] = molecular target: T3, Glutamate receptor 1; test: Activity at recombinant GluA1 receptor flop isoform expressed in Xenopus oocytes assessed as effect of 100 uM kainate-induced current by patch clamp electrophysiological assay; type: cell-based, Oocyte
[16] = molecular target: T2, Glutamate receptor 3; test: Inhibition of GluA3 receptor expressed in Xenopus oocytes assessed as inhibition of […] uM kainate-induced current by patch clamp electrophysiological assay; type: cell-based, Oocyte
[17] = molecular target: T4, Glutamate receptor AMPA 1/2; type: cell-based, Oocyte
[18] = Inhibition of recombinant GluA4 receptor flip isoform expressed in Xenopus oocytes assessed as inhibition of […] uM kainate-induced current by patch clamp electrophysiological assay; type: cell-based; settings: Oocyte
[19] = molecular target: T3, Glutamate receptor 1; test: Inhibition of recombinant GluA1 receptor flip isoform expressed in Xenopus oocytes assessed as inhibition of […] uM glutamate-induced current; type: cell-based, Oocyte
[20] = molecular target: T2, Glutamate receptor 3; settings: Oocyte; at 100 µM
[21] = molecular target: T4, Glutamate receptor AMPA 1/2; test: Inhibition of recombinant GluA1A2 receptor flip isoform expressed in Xenopus oocytes assessed as inhibition of […] uM glutamate-induced current; type: cell-based, Oocyte
[22] = molecular target: Glutamate receptor AMPA 1/2 (Homo sapiens) (UniProt P42262+P42261); settings: Oocyte; at 100 µM
[23] = molecular target: T1, Glutamate receptor 2; settings: Oocyte; at 100 µM
[24] = molecular target: Glutamate receptor AMPA 2/3 (Homo sapiens) (UniProt P42263+P42262); settings: Oocyte; at 100 µM
[25] = molecular target: T3, Glutamate receptor 1; settings: Oocyte; at 100 µM

T1 sequence (P42262 whole entry, canonical isoform): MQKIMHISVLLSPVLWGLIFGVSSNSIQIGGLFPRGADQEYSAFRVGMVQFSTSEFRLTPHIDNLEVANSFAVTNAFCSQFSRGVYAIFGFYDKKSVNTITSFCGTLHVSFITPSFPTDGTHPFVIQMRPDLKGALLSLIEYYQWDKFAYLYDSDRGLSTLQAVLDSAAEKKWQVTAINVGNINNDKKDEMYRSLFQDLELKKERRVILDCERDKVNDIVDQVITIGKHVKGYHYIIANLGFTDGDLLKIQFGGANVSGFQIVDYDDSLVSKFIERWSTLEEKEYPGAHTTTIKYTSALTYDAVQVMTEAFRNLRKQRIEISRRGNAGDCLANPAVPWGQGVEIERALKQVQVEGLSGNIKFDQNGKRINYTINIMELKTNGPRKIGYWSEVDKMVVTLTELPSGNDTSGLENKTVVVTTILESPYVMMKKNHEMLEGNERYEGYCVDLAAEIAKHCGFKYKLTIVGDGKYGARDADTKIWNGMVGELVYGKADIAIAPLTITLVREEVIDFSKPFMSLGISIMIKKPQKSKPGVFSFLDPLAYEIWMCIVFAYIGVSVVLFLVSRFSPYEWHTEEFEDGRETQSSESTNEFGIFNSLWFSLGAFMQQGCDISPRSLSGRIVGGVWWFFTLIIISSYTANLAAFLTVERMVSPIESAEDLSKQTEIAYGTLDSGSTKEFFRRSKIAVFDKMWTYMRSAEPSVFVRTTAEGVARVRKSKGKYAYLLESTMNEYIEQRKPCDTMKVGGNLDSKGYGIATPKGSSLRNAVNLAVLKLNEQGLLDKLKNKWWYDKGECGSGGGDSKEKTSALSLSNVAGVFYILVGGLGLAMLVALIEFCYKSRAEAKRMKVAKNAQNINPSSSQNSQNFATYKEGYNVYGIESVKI
T4 sequence (P42262 whole entry, canonical isoform): as above
T4 sequence (P42261 whole entry, canonical isoform): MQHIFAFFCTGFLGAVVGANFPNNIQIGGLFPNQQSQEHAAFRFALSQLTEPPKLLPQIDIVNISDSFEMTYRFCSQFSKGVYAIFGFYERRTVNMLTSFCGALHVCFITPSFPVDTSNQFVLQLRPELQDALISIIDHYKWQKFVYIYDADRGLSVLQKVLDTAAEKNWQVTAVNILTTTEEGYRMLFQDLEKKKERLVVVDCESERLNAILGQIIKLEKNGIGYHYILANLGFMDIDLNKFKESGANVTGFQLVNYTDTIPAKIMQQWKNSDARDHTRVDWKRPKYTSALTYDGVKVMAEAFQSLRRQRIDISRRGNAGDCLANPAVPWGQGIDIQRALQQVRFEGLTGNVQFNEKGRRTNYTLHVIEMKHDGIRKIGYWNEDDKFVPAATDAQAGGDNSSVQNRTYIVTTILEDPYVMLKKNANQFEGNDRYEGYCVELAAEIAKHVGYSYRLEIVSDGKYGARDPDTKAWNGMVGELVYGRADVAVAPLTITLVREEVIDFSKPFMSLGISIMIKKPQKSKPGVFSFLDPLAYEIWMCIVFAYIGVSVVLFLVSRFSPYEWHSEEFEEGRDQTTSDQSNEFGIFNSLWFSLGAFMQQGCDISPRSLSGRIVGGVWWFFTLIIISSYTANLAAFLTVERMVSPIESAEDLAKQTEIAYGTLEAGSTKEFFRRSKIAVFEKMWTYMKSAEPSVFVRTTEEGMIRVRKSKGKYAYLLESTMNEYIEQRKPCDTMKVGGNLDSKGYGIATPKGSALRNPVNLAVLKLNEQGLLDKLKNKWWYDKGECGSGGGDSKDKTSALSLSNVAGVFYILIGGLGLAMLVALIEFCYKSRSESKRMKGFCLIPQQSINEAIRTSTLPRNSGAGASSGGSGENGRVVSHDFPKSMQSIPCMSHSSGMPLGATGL
T2 sequence (P42263 whole entry, canonical isoform): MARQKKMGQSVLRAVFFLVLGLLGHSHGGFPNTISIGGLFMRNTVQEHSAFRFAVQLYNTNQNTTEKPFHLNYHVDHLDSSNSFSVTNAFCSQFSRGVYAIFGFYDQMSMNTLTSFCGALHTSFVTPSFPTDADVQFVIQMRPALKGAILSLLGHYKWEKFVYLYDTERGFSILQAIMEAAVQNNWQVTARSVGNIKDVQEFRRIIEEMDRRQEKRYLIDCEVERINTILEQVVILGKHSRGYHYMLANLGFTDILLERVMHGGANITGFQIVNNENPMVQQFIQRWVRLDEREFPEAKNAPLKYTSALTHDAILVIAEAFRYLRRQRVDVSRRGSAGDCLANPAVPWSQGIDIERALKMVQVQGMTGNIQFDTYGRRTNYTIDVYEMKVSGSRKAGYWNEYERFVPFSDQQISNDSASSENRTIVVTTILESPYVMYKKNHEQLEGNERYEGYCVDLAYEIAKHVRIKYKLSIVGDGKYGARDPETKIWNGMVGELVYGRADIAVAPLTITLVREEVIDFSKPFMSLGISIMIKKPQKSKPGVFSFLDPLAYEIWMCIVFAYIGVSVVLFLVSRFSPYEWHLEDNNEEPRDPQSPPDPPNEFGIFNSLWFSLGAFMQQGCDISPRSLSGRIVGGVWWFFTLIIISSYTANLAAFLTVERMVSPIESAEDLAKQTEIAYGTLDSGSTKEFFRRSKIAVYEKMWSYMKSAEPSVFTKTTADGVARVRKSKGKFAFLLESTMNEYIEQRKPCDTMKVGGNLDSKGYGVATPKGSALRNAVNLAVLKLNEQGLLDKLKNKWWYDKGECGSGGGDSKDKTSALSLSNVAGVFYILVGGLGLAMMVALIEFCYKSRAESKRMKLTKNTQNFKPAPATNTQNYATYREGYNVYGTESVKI
T3 sequence (P42261 whole entry, canonical isoform): as the sequence (P42261 whole entry, canonical isoform) above
Chain of Glutamate receptor 1 (Rattus norvegicus, UniProt P19490) (P19490 whole entry): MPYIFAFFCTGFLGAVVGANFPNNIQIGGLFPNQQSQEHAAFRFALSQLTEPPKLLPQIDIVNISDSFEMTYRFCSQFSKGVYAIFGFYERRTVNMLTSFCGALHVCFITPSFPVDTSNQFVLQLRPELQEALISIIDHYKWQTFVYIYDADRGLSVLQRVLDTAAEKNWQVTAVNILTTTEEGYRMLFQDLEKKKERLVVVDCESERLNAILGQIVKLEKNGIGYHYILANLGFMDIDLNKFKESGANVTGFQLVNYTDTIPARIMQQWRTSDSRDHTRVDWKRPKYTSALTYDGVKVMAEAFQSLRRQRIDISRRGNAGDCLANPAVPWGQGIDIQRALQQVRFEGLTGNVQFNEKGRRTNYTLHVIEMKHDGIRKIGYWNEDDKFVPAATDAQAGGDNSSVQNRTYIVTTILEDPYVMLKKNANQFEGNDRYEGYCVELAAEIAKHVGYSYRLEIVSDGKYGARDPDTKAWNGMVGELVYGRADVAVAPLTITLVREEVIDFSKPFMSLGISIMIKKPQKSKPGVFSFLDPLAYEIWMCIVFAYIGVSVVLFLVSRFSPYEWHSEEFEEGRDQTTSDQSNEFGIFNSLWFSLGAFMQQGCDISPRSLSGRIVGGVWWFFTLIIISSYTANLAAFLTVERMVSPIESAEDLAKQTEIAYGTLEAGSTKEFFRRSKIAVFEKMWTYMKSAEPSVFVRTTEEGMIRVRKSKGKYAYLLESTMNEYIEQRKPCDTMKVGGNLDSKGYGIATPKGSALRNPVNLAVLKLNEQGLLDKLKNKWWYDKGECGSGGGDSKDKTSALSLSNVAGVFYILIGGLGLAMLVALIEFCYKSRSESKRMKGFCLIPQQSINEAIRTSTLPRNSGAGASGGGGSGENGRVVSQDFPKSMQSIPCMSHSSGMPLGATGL
Chain of Glutamate receptor 4 (P48058 whole entry, canonical isoform): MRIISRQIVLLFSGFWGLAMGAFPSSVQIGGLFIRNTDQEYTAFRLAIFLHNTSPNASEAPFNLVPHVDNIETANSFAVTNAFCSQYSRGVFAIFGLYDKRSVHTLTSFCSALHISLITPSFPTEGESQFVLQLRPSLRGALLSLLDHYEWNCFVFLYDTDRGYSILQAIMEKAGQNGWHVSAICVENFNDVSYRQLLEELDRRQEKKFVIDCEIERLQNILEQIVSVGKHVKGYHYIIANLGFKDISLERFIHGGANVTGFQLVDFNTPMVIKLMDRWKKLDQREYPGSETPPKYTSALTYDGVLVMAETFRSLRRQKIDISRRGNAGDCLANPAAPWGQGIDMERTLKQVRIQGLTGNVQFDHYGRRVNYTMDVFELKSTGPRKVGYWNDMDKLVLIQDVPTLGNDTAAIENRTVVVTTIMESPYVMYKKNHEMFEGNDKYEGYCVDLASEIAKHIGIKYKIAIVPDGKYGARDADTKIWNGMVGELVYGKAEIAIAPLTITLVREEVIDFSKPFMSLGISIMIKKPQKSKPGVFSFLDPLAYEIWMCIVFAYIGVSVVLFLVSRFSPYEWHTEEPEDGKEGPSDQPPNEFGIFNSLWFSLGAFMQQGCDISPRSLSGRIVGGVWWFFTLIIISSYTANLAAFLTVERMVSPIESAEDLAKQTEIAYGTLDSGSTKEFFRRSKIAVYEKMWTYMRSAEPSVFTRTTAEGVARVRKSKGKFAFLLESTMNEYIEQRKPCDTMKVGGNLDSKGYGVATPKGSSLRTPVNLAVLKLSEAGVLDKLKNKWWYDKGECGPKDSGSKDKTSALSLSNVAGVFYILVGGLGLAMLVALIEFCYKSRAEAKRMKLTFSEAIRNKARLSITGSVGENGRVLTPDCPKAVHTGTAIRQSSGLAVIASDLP
Chain of Glutamate receptor AMPA 1/2 (Rattus norvegicus, UniProt P19490+P19491) (P19491 whole entry, canonical isoform): as the sequence (P42262 whole entry, canonical isoform) above, with M191T, T291A, R764G, A852P counted along it
Chain of Glutamate receptor AMPA 1/2 (Rattus norvegicus, UniProt P19490+P19491) (P19490 whole entry, canonical isoform): as the sequence (P19490 whole entry) above

## CC(CNS(=O)(=O)C(C)C)C1CCC(c2ccc(C#N)cc2)CC1 (stereo not given)
[1]
  EC50: 15 µM
[2]
  EC50: 0.15 µM
[3]
  EC50: 1.66 µM
[4]
  EC50: 0.21 µM
[5]
  EC50: 1.44 µM
[6]
  EC50: 5.65 µM
[7]
  EC50: 1.44 µM

## N=C(N)NCCC[C@H](N)C(=O)NCCCNCCCNCCCCCNC(=O)[C@H](CC(N)=O)NC(=O)Cc1ccc(O)cc1O
[8]
  IC50: 0.43 µM
[9]
  IC50: 300 µM
[10]
  IC50: 3.4 µM
[11]
  IC50: 0.35 µM
[12]
  IC50: 0.35 µM
[13]
  IC50: 300 µM
[14]
  IC50: 0.23 µM
[15]
  IC50: 3.4 µM
[16]
  IC50: 0.23 µM
[17]
  IC50: 5.5 µM
[18]
  IC50: 0.43 µM

## CCCC(=O)N[C@@H](Cc1ccc(O)cc1)C(=O)NCCCCCCCNCCCCN
[19]
  Ki: 0.168 µM
[20]
  inhibition: 100%
[21]
  Ki: 1.6 µM
[22]
  inhibition: 84.3%
[23]
  inhibition: 2.1%
[24]
  inhibition: 2.6%
[25]
  inhibition: 100%

— ChEMBL document CHEMBL1157033, “Developing a complete pharmacology for AMPA receptors: a perspective on subtype-selective ligands” (Bioorg Med Chem, 2010)
